Data published in PubChem BioAssay (NCI).
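Tested at 5 concentrations; 48 h exposure; 96-well plates; endpoints linearly interpolated, else capped at highest concentration. At the TGI there is no net growth.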

How the values were obtained:
Test in all cases: DTP human tumour cell line panel, 48 h
A498 renal = system: A498 renal
CCRF-CEM leukemia = system: CCRF-CEM leukemia
HOP-62 NSCLC = system: HOP-62 NSCLC
HOP-92 NSCLC = system: HOP-92 NSCLC
K-562 leukemia = system: K-562 leukemia
LOX IMVI melanoma = system: LOX IMVI melanoma
MOLT-4 leukemia = system: MOLT-4 leukemia
NCI-H23 lung = system: NCI-H23 lung
OVCAR-5 ovarian = system: OVCAR-5 ovarian
OVCAR-8 ovarian = system: OVCAR-8 ovarian
SF-295 CNS = system: SF-295 CNS
SK-MEL-2 melanoma = system: SK-MEL-2 melanoma
SN12C renal = system: SN12C renal
SNB-19 CNS = system: SNB-19 CNS
SW-620 colon = system: SW-620 colon
TK-10 renal = system: TK-10 renal
U251 CNS = system: U251 CNS
UACC-257 melanoma = system: UACC-257 melanoma
UO-31 renal = system: UO-31 renal
NCI-H226 lung = system: NCI-H226 lung

SMILES	TGI (A498 renal)	TGI (CCRF-CEM leukemia)	TGI (HOP-62 NSCLC)	TGI (HOP-92 NSCLC)	TGI (K-562 leukemia)	TGI (LOX IMVI melanoma)	TGI (MOLT-4 leukemia)	TGI (NCI-H23 lung)	TGI (OVCAR-5 ovarian)	TGI (OVCAR-8 ovarian)	TGI (SF-295 CNS)	TGI (SK-MEL-2 melanoma)	TGI (SN12C renal)	TGI (SNB-19 CNS)	TGI (SW-620 colon)	TGI (TK-10 renal)	TGI (U251 CNS)	TGI (UACC-257 melanoma)	TGI (UO-31 renal)	TGI (NCI-H226 lung)
Cc1cc(C)nc(NS(=O)(=O)c2ccc(Nc3c4ccccc4nc4c(C(=O)NCCCN(CCO)CCO)cccc34)cc2)n1	> 100 µM	69.7 µM	73.5 µM	> 100 µM	> 100 µM	46.1 µM	> 100 µM	> 100 µM	> 100 µM	> 100 µM	> 100 µM	34.8 µM	> 100 µM	> 100 µM	33.6 µM	> 100 µM	> 100 µM	> 100 µM	> 100 µM	
CN1C2CC(=O)CC1[C@H](O)[C@@H]2O		> 100 µM	> 100 µM		> 100 µM	> 100 µM	> 100 µM	> 100 µM		> 100 µM	> 100 µM	> 100 µM	> 100 µM	> 100 µM	> 100 µM	> 100 µM	> 100 µM	> 100 µM	> 100 µM	> 100 µM
Cc1[nH]c(=O)nc(N/N=C/c2ccc(Cl)cc2)c1C(=O)NC(C)(CO)CO	> 100 µM	> 100 µM	> 100 µM	> 100 µM	> 100 µM	> 100 µM	> 100 µM	> 100 µM	> 100 µM	> 100 µM	> 100 µM	> 100 µM	> 100 µM	> 100 µM	> 100 µM	> 100 µM	> 100 µM	> 100 µM	> 100 µM	> 100 µM
CCOC(=O)c1csc(NC(=O)CCN2CCCCC2)n1	> 100 µM	> 100 µM	> 100 µM	> 100 µM	> 100 µM	> 100 µM	> 100 µM	> 100 µM	> 100 µM	> 100 µM	> 100 µM	> 100 µM		> 100 µM	> 100 µM	> 100 µM	> 100 µM	> 100 µM	> 100 µM	
COc1cc(C2C(Cl)C(=O)N2NC(=O)c2ccccc2O)ccc1O (configuration not stated)	> 100 µM	> 100 µM			> 100 µM	> 100 µM	> 100 µM	> 100 µM		> 100 µM	> 100 µM	> 100 µM	> 100 µM	> 100 µM		> 100 µM	> 100 µM	> 100 µM	> 100 µM	> 100 µM
CC1(C23CC4CC(CC(C4)C2)C3)n2c(=O)n(-c3ccccc3)c(=O)n2C1(C)C12CC3CC(CC(C3)C1)C2 (configuration not stated)	> 100 µM	> 100 µM	> 100 µM	> 100 µM	> 100 µM		> 100 µM	> 100 µM	> 100 µM	> 100 µM	> 100 µM	> 100 µM	> 100 µM	> 100 µM	> 100 µM	> 100 µM	> 100 µM	> 100 µM	> 100 µM	> 100 µM
CCC1=CC2CN3CCc4c([nH]c5ccccc45)C(C(=O)OC)(C2)C13 (configuration not stated)	108 µM	252 µM	86.1 µM	33.9 µM	202 µM	121 µM	181 µM	100 µM	24.3 µM	14.7 µM	90.1 µM	114 µM	89.3 µM	68.4 µM	82.7 µM		117 µM	104 µM	71.4 µM	23.4 µM
CCCCC(C)C1CCC2(C)C=CC(=O)C(C)=C2C1O (configuration not stated)	> 100 µM	> 100 µM	> 100 µM	> 100 µM	> 100 µM	> 100 µM	> 100 µM	> 100 µM	> 100 µM	> 100 µM	> 100 µM	> 100 µM	> 100 µM	> 100 µM	> 100 µM		> 100 µM	> 100 µM	> 100 µM	> 100 µM
